In patent publication US8178135B2, “Aqueous solution of conophylline and/or conophyllidine” (Keio University, priority 2006, dated 2012):
Like-named read-outs stand apart in the source and are kept apart here.

Key:
[1] = Dissolution of dried ethanol extract in citric acid / citrate buffer at pH 2.6 to 6.0 (HPLC); assay type: physicochemical
Procedure: Conophylline and conophyllidine were analyzed by reversed phase HPLC in a high pressure gradient mode using a YMC-Pack Pro C18 RS column (4.6 mm×250 mm; manufactured by YMC Co., Ltd.). The mobile phase consisted of 1% by volume acetic acid as solvent A and acetonitrile as solvent B. The gradient program was set to start with 10% B at a flow rate of 1 ml/min, and the portion of B was increased linearly to 55% over 25 min. The column temperature was 40° C. and UV absorption was monitored at the wavelength of 335 nm. The reference solutions of conophylline and conophyllidine were prepared immediately before measurement and their concentrations were calculated from the absorbance at 335 nm of the solutions prepared.
After some of the dried leaves obtained in Example 1 were pulverized in a mill, 10 g of the pulverized product was extracted with 100 ml of 60% ethanol. Then, the extract was centrifuged and supernatant containing conophylline and conophyllidine was recovered. […] The supernatant was dispensed in 3 ml aliquots into 5 centrifuge tubes and then concentrated to dryness by centrifugation. A buffer (citric acid aqueous solution or sodium citrate buffer) at pH 2.6 to pH 6.0 prepared by appropriately mixing 0.1 M citric acid solution and 0.1 M sodium citrate solution was added at 0.1 ml per tube. After 10 min vigorous stirring, the supernatant was centrifugated again and diluted 10-fold with 50% ethanol. After the dilution, insoluble matter was removed by filtration with a 0.2-μm membrane filter and the contents of conophylline and conophyllidine in the filtrated supernatant were measured by HPLC (Table 2).

[2] = Concentration dissolved after neutralization with pectin or sodium polyacrylate (ethanol crude extract); assay type: physicochemical; details: for concentration in solution: Control: filled up only with distilled water, not neutralized
Procedure: Crude extract (250 mg) obtained in Example 1 was dissolved in 5 ml of 0.1 N hydrochloric acid. Then, after insoluble matter was removed by centrifugation (1,500×g, 5 min), the solution was dispensed in 0.5 ml aliquots into test tubes. Then, 10 μl or 100 μl of a 0.2% aqueous solution of pectin (Genue pectin type YM-150-LJ) or 0.2% aqueous solution of sodium polyacrylate (degrees of polymerization=30,000 to 40,000, manufactured by Wako Pure Chemical Industries, Ltd.) was added and filled up to a total volume of 2 ml with distilled water. Meanwhile, only distilled water was added to some of the test tubes in a total volume of […] (without an additive).
Subsequently, the solution, after being adjusted to pH 6.0 with sodium carbonate aqueous solution, was filled up to a total volume of 2 ml and was centrifuged at 5,000×g for 10 min. The supernatant was recovered and the concentrations of conophylline and conophyllidine were measured. Meanwhile, the concentrations of conophylline and conophyllidine in the solutions, which was made by filled up to a total volume of 2.5 ml only with distilled water, were also measured as the control.

[3] = Concentration dissolved after neutralization with pectin or sodium polyacrylate (partially purified by reversed phase column); assay type: physicochemical; details: for concentration in solution: Control: not neutralized
Procedure: Crude extract I (250 mg) obtained in Example 1 was dissolved in 5 ml of ethanol. Water was added to this solution in a total volume of 50 ml, which was passed through a glass column packed with about 5 ml of ODS resin (DM1020T, manufactured by Fuji Silysia Chemical Ltd.). After unadsorbed matter was removed by washing the column with 10 ml of distilled water, the adsorbed component was eluted with 10 ml of ethanol. Then, after the solvent was removed by centrifugal concentration, the concentrate was dissolved in 5 ml of 0.1 N hydrochloric acid and the solution was dispensed in 0.5 ml aliquots into test tubes. Then, 10 μl, 100 μl, or 1000 μl of a 0.2% aqueous solution of pectin or 0.2% aqueous solution of sodium polyacrylate was added to the aliquots. The solutions were treated in the same way as in Example 11 and the concentrations of conophylline and conophyllidine in the supernatants were measured.

[4] = Blood concentrations after oral administration of acetic acid extract or dried pulverized leaves to healthy rats; assay type: in vivo, rat
Procedure: Dried leaves of Tabernaemontana divaricata were pulverized with a home mill, 1 g of the pulverized product was homogenized in 20 ml of 0.3 M acetic acid solution, and the active ingredient was extracted by stirring at 50° C. for 30 min. The supernatant was recovered by centrifugation and concentrated to dryness to obtain 0.3 g of powder (acetic acid extract). This powder contained conophylline and conophyllidine at 1.0 mg/g and 0.8 mg/g, respectively.
Further, 1 g of pulverized leaves was homogenized in 20 ml of distilled water and then concentrated to dryness to obtain 1 g of product (dried pulverized leaves). The amounts of the active ingredients of conophylline and conophyllidine were 0.40 mg/g and 0.35 mg/g, respectively.
Next, 0.2 g of the acetic acid extract and 0.5 g of the dried pulverized leaves were separately suspended in 5 ml of water for injection. These suspensions were administered to 5-week old healthy rats (Crj:CD (SD) IGS, SPF, male) using a sonde by forced oral administration at a dose of 5 ml/kg body weight (n=2 per suspension). Blood was taken from the orbital venous plexus of each rat before oral administration, 1.5, 3, 6, 12, and 24 hours post administration and serum was recovered by centrifugation. The concentrations of conophylline and conophyllidine in the blood were measured by precipitating protein by addition of 2 volumes of acetonitrile to the serum followed by HPLC analysis of the supernatant (Table 6).

[5] = Blood concentrations after oral administration of Crude extract I to rats; assay type: in vivo, rat
Procedure: One drop of Tween 80 was added to the crude extract (0.05 g) obtained in Example 1, which was suspended in 5-ml of water for injection. This suspension was administered to 5-week old rats (Crj:CD(SD) IGS, SPF, male) using a sonde by forced oral administration at a dose of 5 ml/kg body weight (n=2). Blood was taken from the orbital venous plexus of each rat at 0.5, 1, 2, 4, 8, 24 hours post administration and serum was recovered by centrifugation. Then, the concentrations of conophylline and conophyllidine in the blood were measured (Table 7) by the same method as in Example 8. As the control, water for injection containing one drop of Tween80 was administered orally at a dose of 5 ml/kg body weight (n=2) and the blood concentrations were measured in the same manner.

[6] = pH 6.0, Sodium polyacrylate 10 μg/ml
[7] = pH 6.0, Sodium polyacrylate 100 μg/ml
[8] = male, Crj:CD(SD) IGS, rat, in vivo, po, blood concentration

Structure (SMILES)	content dissolved in supernatant ([1]; Citrate buffer solution, pH 3)	content dissolved in supernatant ([1]; Citrate buffer solution, pH 4)	content dissolved in supernatant ([1]; Citrate buffer solution, pH 5)	content dissolved in supernatant ([1]; Citrate buffer solution, pH 6)	content dissolved in supernatant ([1]; Citric acid, pH 2.6)	concentration in solution [2]	concentration in supernatant after neutralization ([2]; pH 6.0, Pectin 10 μg/ml)	concentration in supernatant after neutralization ([2]; pH 6.0, Pectin 100 μg/ml)	concentration in supernatant after neutralization [2, 6]	concentration in supernatant after neutralization [2, 7]	concentration in supernatant after neutralization ([2]; pH 6.0, additive None)	concentration in solution [3]	concentration in supernatant after neutralization ([3]; pH 6.0, Pectin 10 μg/ml)	concentration in supernatant after neutralization ([3]; pH 6.0, Pectin 100 μg/ml)	concentration in supernatant after neutralization ([3]; pH 6.0, Pectin 1000 μg/ml)	concentration in supernatant after neutralization [3, 6]	concentration in supernatant after neutralization [3, 7]	concentration in supernatant after neutralization ([3]; pH 6.0, additive None)	further results
CC[C@@]12C=CCN3CC[C@]4(C(=C(C(=O)OC)C1)Nc1cc5c(cc14)[C@H]1[C@@H](O5)[C@H](O)[C@]4(CC)CC(C(=O)OC)=C5Nc6c(cc(O)c(OC)c6OC)[C@@]56CCN1[C@H]46)[C@H]32 (stereo in doubt) [Conophyllidine, conophyllidine]	0.612 mg/mL	0.055 mg/mL	0.0017 mg/mL	0.0010 mg/mL	0.786 mg/mL	11830 ng/mL	2420 ng/mL	5190 ng/mL	2500 ng/mL	8450 ng/mL	3270 ng/mL	16080 ng/mL	130 ng/mL	570 ng/mL	2740 ng/mL	170 ng/mL	6990 ng/mL	160 ng/mL	blood concentration ([4]; Dried pulverized leaves oral, healthy rats (animals 3, 4), 6 h): 54 ng/mL; blood concentration ([4]; Dried pulverized leaves oral, healthy rats (animals 3, 4), 12 h): 13 ng/mL; blood concentration ([4]; Dried pulverized leaves oral, healthy rats (animals 3, 4), 24 h): 2 ng/mL; time at which blood concentration reached its maximum ([4]; acetic acid extract oral, rats): 1.5 h; concentration at 6 h ([4]; male, Crj:CD (SD) IGS, rat, in vivo, po, 0.5 g/kg, Dried pulverized leaves oral, healthy rats (animals 3, 4), 6 h): 28 ng/mL; concentration at 12 h ([4]; male, Crj:CD (SD) IGS, rat, in vivo, po, 0.5 g/kg, Dried pulverized leaves oral, healthy rats (animals 3, 4), 12 h): 8 ng/mL; concentration at 24 h ([4]; male, Crj:CD (SD) IGS, rat, in vivo, po, 0.5 g/kg, Dried pulverized leaves oral, healthy rats (animals 3, 4), 24 h): 1 ng/mL; blood concentration ([5]; Crude extract I oral, rats (animals 3, 4), 0.5 h): 65 ng/mL; blood concentration ([5]; Crude extract I oral, rats (animals 3, 4), 1 h): 62 ng/mL; blood concentration ([5]; Crude extract I oral, rats (animals 3, 4), 2 h): 32 ng/mL; blood concentration ([5]; Crude extract I oral, rats (animals 3, 4), 4 h): 25 ng/mL; blood concentration ([5]; Crude extract I oral, rats (animals 3, 4), 8 h): 13 ng/mL; blood concentration ([5]; Crude extract I oral, rats (animals 3, 4), 24 h): 9 ng/mL; concentration at 0.5 h ([5]; male, Crj:CD(SD) IGS, rat, in vivo, po, 0.05 g/kg, Crude extract I oral, rats (animals 3, 4), 0.5 h, read-out: blood concentration): 54 ng/mL; concentration at 1 h ([5]; male, Crj:CD(SD) IGS, rat, in vivo, po, 0.05 g/kg, Crude extract I oral, rats (animals 3, 4), 1 h, read-out: blood concentration): 61 ng/mL; concentration at 2 h ([5]; male, Crj:CD(SD) IGS, rat, in vivo, po, 0.05 g/kg, Crude extract I oral, rats (animals 3, 4), 2 h): 40 ng/mL; concentration at 4 h ([5]; male, Crj:CD(SD) IGS, rat, in vivo, po, 0.05 g/kg, Crude extract I oral, rats (animals 3, 4), 4 h): 36 ng/mL; concentration at 8 h ([5]; male, Crj:CD(SD) IGS, rat, in vivo, po, 0.05 g/kg, Crude extract I oral, rats (animals 3, 4), 8 h): 24 ng/mL; concentration at 24 h ([5]; male, Crj:CD(SD) IGS, rat, in vivo, po, 0.05 g/kg, Crude extract I oral, rats (animals 3, 4), 24 h, read-out: blood concentration): 13 ng/mL
CC[C@@]12CC(C(=O)OC)=C3Nc4cc5c(cc4[C@@]34CCN(C[C@H]3O[C@H]31)[C@@H]24)[C@@H]1[C@H](O5)[C@@H](O)[C@@]2(CC)CC(C(=O)OC)=C3Nc4c(cc(O)c(OC)c4OC)[C@@]34CCN1[C@@H]24 [Conophylline, conophylline]	0.866 mg/mL	0.093 mg/mL	0.0018 mg/mL	0.0009 mg/mL	1.072 mg/mL	8420 ng/mL	1740 ng/mL	3830 ng/mL	1870 ng/mL	4850 ng/mL	2520 ng/mL	11280 ng/mL	270 ng/mL	550 ng/mL	2590 ng/mL	240 ng/mL	5150 ng/mL	190 ng/mL	time at which blood concentration reached its maximum ([4]; male, Crj:CD (SD) IGS, rat, in vivo, po): 1.5 h; blood concentration ([5]; male, Crj:CD(SD) IGS, rat, in vivo, po, 0.5 h): 398 ng/mL; blood concentration ([5]; male, Crj:CD(SD) IGS, rat, in vivo, po, 1 h): 472 ng/mL; blood concentration ([5]; male, Crj:CD(SD) IGS, rat, in vivo, po, 24 h): 108 ng/mL; concentration at 0.5 h [5, 8]: 332 ng/mL; concentration at 1 h [5, 8]: 270 ng/mL; concentration at 24 h [5, 8]: 90 ng/mL
